Results as given in EP0920487B1, “COMPOSITION AND METHOD FOR INHIBITING THE DEPOSITION OF PROTEIN ON CONTACT LENS” (BAUSCH & LOMB INCORPORATED, priority 1996, dated 1997).

Tested on: lysozyme
Assay: SPE protein-binding inhibition screening (Sep-Pak Accell Plus CM solid-phase extraction cartridge, absorbance of eluent at 280 nm)
Design: species or system hen
Settings: test compound 1% in BBS; then 0.05% lysozyme; corrected for BBS control
Source text: In another aspect of the present invention, selected polyquaternium polymers simultaneously satisfy the dual requirements of both (i) meeting ophthalmological safety standards for an in-the-eye contact-lens solution at concentrations of 1000 ppm and (ii) inhibiting protein binding to a contact lens. The safety requirements can be determined according to the so-called NRDR (neutral red dye release) assay for cytotoxicity described in the Examples. In particular, the polyquaternium polymer should have an NRDR assay rating of L or less at a level of 1000 ppm., preferably L or less at a level of 500 ppm (dry weight of polymer, correcting for water content of the available polymer material). […] The material in this extraction cartridge is a weak cation exchanger that contains a silica support coated with a polymer having carboxymethyl groups. This extraction cartridge is first treated with a 1.0% solution of the polyquaternium polymer in borate-buffered saline followed by exposing the solid phase extraction cartridge to 0.05% lysozyme. The amount of protein-binding inhibition is determined compared to a control solution. […] Preferably, the SPE protein-binding inhibition is at least 20%, more preferably at least 30%, most preferably at least 35%.
This Experiment illustrates the measurement of the protein-displacing effects of various polyquaternium polymers. Among the polyquaternium polymers tested, the polymers varied with respect to the comonomers making up the polymer, the respective proportion of comonomers, and/or the molecular weight of the polymer. The following screening procedure was used. […] The absorbance measurements were conducted by (1) taking an initial absorbance with BBS in a 1 cm cuvette, which reading should be 0.000, re-autozeroing if necessary with BBS, (2) rinsing and filling the cuvette with 0.05% lysozyme solution and reading the absorbance to obtain the "maximum inhibition value', and (3) reading the absorbances for the solutions in the test tubes used to collect the eluents from the test cartridges. […]

| Substance | Average % SPE Binding Inhibition [%] |
| --- | --- |
| benzalkonium bromide [BAB] | 8 |
| benzalkonium chloride [BAK] | 3 |
| lauryl methyl gluceth-10 hydroxy-propyl dimonium chloride [Gluquat® 125] | 2 |
